Measured values as given in patent US7659289B2, “Hydroxyethylene-based β-secretase inhibitors and use thereof” (CoMentis, Inc., priority 2004, dated 2010).
pIC50, pKi: −log10 of the molar value.

Tests used:
Memapsin 1 = target: T1, Memapsin 1 (Homo sapiens, UniProt Q9Y5Z0); test: Inhibition of memapsin 1 beta-secretase activity (MALDI-TOF, substrate peptide […]); assay type: biochemical; details: pH 4.1, 37 degrees C., read-out: M1 Ki
T1 sequence (Q9Y5Z0 63-473 limits assumed): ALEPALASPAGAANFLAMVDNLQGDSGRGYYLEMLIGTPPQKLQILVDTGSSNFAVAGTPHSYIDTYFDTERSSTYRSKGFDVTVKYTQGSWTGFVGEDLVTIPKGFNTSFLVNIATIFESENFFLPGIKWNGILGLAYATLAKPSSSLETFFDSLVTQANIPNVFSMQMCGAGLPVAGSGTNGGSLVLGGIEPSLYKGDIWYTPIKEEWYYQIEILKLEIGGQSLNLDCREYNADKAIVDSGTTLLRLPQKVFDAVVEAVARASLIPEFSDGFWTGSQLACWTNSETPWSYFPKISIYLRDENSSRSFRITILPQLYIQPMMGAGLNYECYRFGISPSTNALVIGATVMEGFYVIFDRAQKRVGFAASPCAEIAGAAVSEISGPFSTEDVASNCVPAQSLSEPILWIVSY

memapsin 2 = memapsin 2 (Homo sapiens, UniProt P56817); test: Inhibition of memapsin 2 beta-secretase activity toward fluorogenic substrate FS-2; assay type: biochemical; details: pH 4, 37° C., 20 minutes pre-incubation, fluorogenic substrate FS-2, tight-binding model; read-out: M2 Ki
memapsin 2, sequence (P56817 46-501): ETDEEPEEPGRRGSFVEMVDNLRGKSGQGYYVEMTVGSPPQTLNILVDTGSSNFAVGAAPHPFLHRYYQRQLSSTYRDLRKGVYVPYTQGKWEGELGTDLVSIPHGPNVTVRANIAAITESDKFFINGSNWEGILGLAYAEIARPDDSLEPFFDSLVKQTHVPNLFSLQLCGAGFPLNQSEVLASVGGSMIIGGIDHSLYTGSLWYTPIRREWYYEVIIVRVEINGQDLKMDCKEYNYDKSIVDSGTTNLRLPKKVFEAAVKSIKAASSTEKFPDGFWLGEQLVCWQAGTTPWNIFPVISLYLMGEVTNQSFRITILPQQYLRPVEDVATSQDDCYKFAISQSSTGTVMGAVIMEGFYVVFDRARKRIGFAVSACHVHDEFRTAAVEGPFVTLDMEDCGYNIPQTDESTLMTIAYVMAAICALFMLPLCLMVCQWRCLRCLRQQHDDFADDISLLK

Aβ production = test: Cellular Aβ IC50 determination (Aβ40 sandwich ELISA); assay type: cell-based; details: Cricetulus griseus; Aβ40, Chinese hamster ovary cells over-expressing human APP695 with London and Swedish mutations, 24 h incubation
Method: The potency of compounds against memapsin 2 activity was determined in a cellular assay of Aβ production. […] Chinese hamster ovary cells that over-express human APP695 with the London and Swedish mutations were seeded in multi-well plates at 10% confluency. Compounds were dissolved in DMSO to concentrations near 1 mM, and diluted into culture media to a final concentration near 4 μM (final 0.4% DMSO). Compounds were diluted serially and applied to cells in multi-well plates 48 h after seeding. Incubation was continued in 5% CO2 at 37 degrees C. for 24 h. Aliquots were removed and assayed for Aβ40 content using a sandwich ELISA (BioSource International). Amount of Aβ40 over the range of concentration of compounds, relative to control incubations, were fit to a 4-parameter IC50 model.

Cathepsin D = Cathepsin D (Homo sapiens, UniProt P07339); test: Inhibition of cathepsin D activity (MALDI-TOF, substrate peptide […]); assay type: biochemical; details: pH 4.1, 37 degrees C., read-out: Cath D Ki
Cathepsin D, sequence (P07339 65-412, species assumed): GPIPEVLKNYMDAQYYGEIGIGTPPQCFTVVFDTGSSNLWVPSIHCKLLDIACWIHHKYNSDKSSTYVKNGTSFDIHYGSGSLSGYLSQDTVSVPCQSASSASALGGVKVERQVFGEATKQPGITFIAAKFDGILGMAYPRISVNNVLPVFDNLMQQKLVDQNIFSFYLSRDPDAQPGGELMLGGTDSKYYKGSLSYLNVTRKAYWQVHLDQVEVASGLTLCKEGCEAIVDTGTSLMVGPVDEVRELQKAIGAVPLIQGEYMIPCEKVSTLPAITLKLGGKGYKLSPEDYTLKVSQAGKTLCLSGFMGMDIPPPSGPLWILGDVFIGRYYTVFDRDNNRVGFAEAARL

| SMILES | pKi (Memapsin 1) | pKi (memapsin 2) | pIC50 (Aβ production) | pKi (Cathepsin D) |
| --- | --- | --- | --- | --- |
| CC[C@@H](Cn1nc(C)cc1C)C(=O)N[C@@H](CNC(=O)OC(C)(C)C)C(=O)N[C@@H](CC(C)C)[C@@H](O)C[C@@H](C)C(=O)N[C@H](C(=O)NCC(F)(F)F)C(C)C [tert-butyl (S)-2-((S)-2-((3,5-dimethyl-1H-pyrazol-1-yl)methyl)butanamido)-3-((4S,5S,7R)-5-hydroxy-2,7-dimethyl-8-((S)-3-methyl-1-oxo-1-(2,2,2-trifluoroethylamino)butan-2-ylamino)-8-oxooctan-4-ylamino)-3-oxopropylcarbamate] | – | > 7.00 | 4.00 to 5.22 | > 7.00 |
| CC[C@@H](Cn1nc(C)cc1C)C(=O)N[C@@H](CNC(=O)OC(C)(C)C)C(=O)N[C@@H](CC(C)C)[C@@H](O)C[C@@H](C)C(=O)N[C@H](C(=O)NCC(C)C)C(C)C [tert-butyl (S)-2-((S)-2-((3,5-dimethyl-1H-pyrazol-1-yl)methyl)butanamido)-3-((4S,5S,7R)-5-hydroxy-8-((S)-1-(isobutylamino)-3-methyl-1-oxobutan-2-ylamino)-2,7-dimethyl-8-oxooctan-4-ylamino)-3-oxopropylcarbamate] | – | > 7.00 | > 5.22 | > 7.00 |
| Cc1nc(C[C@H](C)C(=O)N[C@@H](CNC(=O)OC(C)(C)C)C(=O)N[C@@H](CC(C)C)[C@@H](O)C[C@@H](C)C(=O)N[C@H](C(=O)NCC(C)C)C(C)C)c(C)o1 [tert-butyl (S)-2-((S)-3-(2,5-dimethyloxazol-4-yl)-2-methylpropanamido)-3-((4S,5S,7R)-5-hydroxy-8-((S)-1-(isobutylamino)-3-methyl-1-oxobutan-2-ylamino)-2,7-dimethyl-8-oxooctan-4-ylamino)-3-oxopropylcarbamate] | – | > 7.00 | > 5.22 | > 7.00 |
| Cc1csc(C[C@H](C)C(=O)N[C@@H](CNC(=O)OC(C)(C)C)C(=O)N[C@@H](CC(C)C)[C@@H](O)C[C@@H](C)C(=O)N[C@H](C(=O)NCc2ccncc2)C(C)C)n1 [tert-butyl (S)-3-(4S,5S,7R)-hydromxy-2,7-dimethyl-8-((S)-3-methyl-1-oxo-1-(pyridin-4-ylmethylamino)butan-2-ylamino)-8-oxooctan-4-ylamino)-2-((S)-2-methyl-3-(4-methylthiazol-2-yl)propanamido)-3-oxopropylcarbamate] | – | > 7.00 | > 5.22 | 6.22 to 7.00 |
| Cc1csc(C[C@H](C)C(=O)N[C@@H](CNC(=O)OC(C)(C)C)C(=O)N[C@@H](Cc2ccccc2)[C@@H](O)C[C@@H](C)C(=O)N[C@H](C(=O)NCC(C)C)C(C)C)n1 [tert-butyl (S)-3-((2S,3S,5 R)-3-hydroxy-6-((S)-1-(isobutylamino)-3-methyl-1-oxobutan-2-ylamino)-5-methyl-6-oxo-1-phenylhexan-2-ylamino)-2-((S)-2-methyl-3-(4-methylthiazol-2-yl)propanamido)-3-oxopropylcarbamate] | – | > 7.00 | 4.00 to 5.22 | > 7.00 |
| CC[C@H](C[C@H](O)[C@H](CC(C)C)NC(=O)[C@H](CNC(=O)OC(C)(C)C)NC(=O)[C@@H](C)Cc1nc(C)cs1)C(=O)N[C@H](C(=O)NCC(C)C)C(C)C [tert-butyl (S)-3-((4S,5S,7R)-5-hydroxy-7-((S)-1-(isobutylamino)-3-methyl-1-oxobutan-2-ylcarbamoyl)-2-methylnonan-4-ylamino)-2-((S)-2-methyl-3-(4-methylthiazol-2-yl)propanamido)-3-oxopropylcarbamate] | – | > 7.00 | > 5.22 | > 7.00 |
| Cc1csc(C[C@H](C)C(=O)N[C@@H](CNC(=O)OC(C)(C)C)C(=O)N[C@@H](CC(C)C)[C@@H](O)C[C@@H](C)C(=O)N[C@H](C(=O)NN(C)C)C(C)C)n1 [tert-butyl (S)-3-((4S,5S,7R)-8-((S)-1-(2,2-dimethylhydrazinyl)-3-methyl-1-oxobutan-2-ylamino)-5-hydroxy-2,7-dimethyl-8-oxooctan-4-ylamino)-2-((S)-2-methyl-3-(4-methylthiazol-2-yl)propanamido)-3-oxopropylcarbamate] | – | > 7.00 | > 5.22 | 6.22 to 7.00 |

The remaining lines, values ahead:

| pKi (Memapsin 1) | pKi (memapsin 2) | pIC50 (Aβ production) | pKi (Cathepsin D) | SMILES |
| --- | --- | --- | --- | --- |
| 6.22 to 7.00 | > 7.00 | < 4.00 | 6.22 to 7.00 | Cc1csc(COC(=O)N[C@@H](CNS(C)(=O)=O)C(=O)N[C@@H](CC(C)C)[C@@H](O)C[C@@H](C)C(=O)N[C@H](C(=O)NCC(C)C)C(C)C)n1 |
| 6.22 to 7.00 | 6.22 to 7.00 | < 4.00 | 6.22 to 7.00 | Cc1csc(COC(=O)N[C@@H](CNC(=O)OC(C)(C)C)C(=O)N[C@@H](CC(C)C)[C@@H](O)C[C@@H](C)C(=O)N[C@H](C(=O)NCC(C)C)C(C)C)n1 |
| > 7.00 | > 7.00 | > 5.22 | > 7.00 | COC(=O)NC[C@H](NC(=O)OCc1nc(C)cs1)C(=O)N[C@@H](CC(C)C)[C@@H](O)C[C@@H](C)C(=O)N[C@H](C(=O)NCC(C)C)C(C)C |
| 6.22 to 7.00 | 6.22 to 7.00 | 4.00 to 5.22 | 6.22 to 7.00 | Cc1csc(COC(=O)N[C@@H](CNC(=O)O[C@H]2CCOC2)C(=O)N[C@@H](CC(C)C)[C@@H](O)C[C@@H](C)C(=O)N[C@H](C(=O)NCC(C)C)C(C)C)n1 |
| 6.22 to 7.00 | > 7.00 | – | – | Cc1csc(CNC(=O)C[C@@H](NC(=O)OC(C)(C)C)C(=O)N[C@@H](CC(C)C)[C@@H](O)C[C@@H](C)C(=O)N[C@H](C(=O)NCC(C)C)C(C)C)n1 [tert-butyl (5R,8S,9S,11 R,14S)-9-hydroxy-8-isobutyl-14-isopropyl-11,18-dimethyl-1-(4-methylthiazol-2-yl)-3,6,12,15-tetraoxo-2,7,13,16-tetraazanonadecan-5-ylcarbamate] |
| < 6.22 | 6.22 to 7.00 | – | – | Cc1csc(CNC(=O)C[C@H](NC(=O)OC(C)(C)C)C(=O)N[C@@H](CC(C)C)[C@@H](O)C[C@@H](C)C(=O)N[C@H](C(=O)NCC(C)C)C(C)C)n1 [tert-butyl (5S,8S,9S,11R,14S)-9-hydroxy-8-isobutyl-14-isopropyl-11,18-dimethyl-1-(4-methylthiazol-2-yl)-3,6,12,15-tetraoxo-2,7,13,16-tetraazanonadecan-5-ylcarbamate] |
| – | > 7.00 | > 5.22 | > 7.00 | CC[C@@H](Cc1nc(C)cs1)C(=O)N[C@@H](CNC(=O)OC(C)(C)C)C(=O)N[C@@H](CC(C)C)[C@@H](O)C[C@@H](C)C(=O)N[C@H](C(=O)NCC(C)C)C(C)C [tert-butyl (S)-3-((4S,5S,7R)-5-hydroxy-8-((S)-1-(isobutylamino)-3-methyl-1-oxobutan-2-ylamino)-2,7-dimethyl-8-oxooctan-4-ylamino)-2-((S)-2-((4-methylthiazol-2-yl)methyl)butanamido)-3-oxopropylcarbamate] |
| 6.22 to 7.00 | > 7.00 | > 5.22 | > 7.00 | Cc1csc(C[C@H](C)C(=O)N[C@@H](CNC(=O)OC(C)(C)C)C(=O)N[C@@H](CC(C)C)[C@@H](O)C[C@@H](C)C(=O)N[C@H](C(=O)NCC(C)C)C(C)C)n1 [tert-butyl (S)-3-((4S,5S,7R)-5-hydroxy-8-((S)-1-(isobutylamino)-3-methyl-1-oxobutan-2-ylamino)-2,7-dimethyl-8-oxooctan-4-ylamino)-2-((S)-2-methyl-3-(4-methylthiazol-2-yl)propanamido)-3-oxopropylcarbamate] |
